Source: publication PMC10986487, “Epidrugs: alternative chemotherapy targeting Theileria annulata schizont stage parasites” (Microbiology Spectrum, 2024)
Read-outs that look alike come from different tables or passages of the source.

What was measured:
[1] = test system: T. annulata-infected bovine cells; assay: Resazurin-based drug susceptibility assay, 2-fold serial dilutions, 48 hours; format: cell-based, Theileria annulata; details: 0.019 µM to 10 µM, read-out: IC50 against T. annulata-infected cells
Procedure: In this study, we conducted a screening of 148 compounds from the Cayman epigenetics library against the asexual schizont stage of T. annulata-infected bovine cells to assess their potential anti-theilerial activity (Fig. 1A). The initial screening involved testing the compounds at a concentration of 10 µM, with BPQ serving as the internal control. […] Subsequently, we performed drug susceptibility assays on the selected 27 compounds to determine their 50% inhibitory concentration (IC50) values against T. annulata-infected cells. To do this, 2-fold serial dilutions ranging from 0.019 µM to 10 µM were prepared, and the percentage of cell death was assessed after 48 hours using resazurin-based assays.
Fig 1 Screening of epigenetic inhibitors for potential anti-theilerial activity in T. annulata-infected cells. (A) List of compounds and their functional classes used in this study. (B) Inhibition (%) of the hits (n = 27) with anti-theilerial activity when screened in T. annulata-infected cells, where the cut-off (--) was set at 50% inhibition. […] (E) Flow cytometry-based detection of annexin V-positive T. annulata-infected cells upon drug treatment for detection of early apoptosis.

Theileria annulata = test system: Theileria annulata; design: method as in earlier work; details: ref 14 (Titus et al.); read-out: Concentration displaying anti-theilerial effects; cited from earlier work

Row | IC50 [1] [µM] | SMILES | IC50 (Theileria annulata) [µM] | IC50 ([1]; Theileria annulata) [µM]
1 | 2.58 | CC1(C)C(=O)N=C2C1=C(O)C(=O)c1ccccc12 [BVT-948] | – | –
2 | 3.68 | O=C(CCl)Nc1ccc(S(=O)(=O)c2ccc(NC(=O)CCl)cc2)cc1 [TCE-5003] | – | –

Further lines, the compound ahead of its results:

Row | SMILES | IC50 [1] [µM] | IC50 (Theileria annulata) [µM] | IC50 ([1]; Theileria annulata) [µM]
3 | COC(=O)/C=C/C(=O)N(O)CCCCNCc1ccc(COC(=O)Nc2cccc3ccccc23)cc1 [Methylstat] | 6.97 | – | –
4 | CC1=CC(=O)c2c(O)cccc2C1=O [Plumbagin] | – | 0.009 | 8.13
5 | Cc1ccc(NC2=CC(=O)c3sc(C)nc3C2=O)cc1 [Ryuvidine] | 2.18 | – | –
6 | CC(/C=C/C(=O)NO)=C\[C@@H](C)C(=O)c1ccc(N(C)C)cc1 [Trichostatin A] | 6.02 | – | –
